Results taken from PMC6338644 (The FASEB Journal, 2018).
Where “and” joins values, the source holds several entries; their conditions need not be identical. Identical values can stand only once. Counter-ions that a name gives are not always drawn. Like-named read-outs stand apart in the source and are kept apart here.

Tests used:
[1] = tested on: SHIP2 immunoprecipitated from the lysates of L6 myotubes; format: cell-based, rat; details: 20–24 h
Procedure: Immortalized human podocytes were maintained as previously described ([10]). […] Podocytes were lysed as previously described ([21]).
(§1) Recombinant His-tagged human SHIP2 and SHIP1 phosphatase domains were produced as previously described ([17]). […] Immunocomplexes were bound to protein G-Sepharose beads at +4°C for 2 h and washed 3 times with malachite green phosphate assay buffer {10 mM 4-(2-hydroxyethyl)-1-piperazineethanesulfonic acid (HEPES), pH 7.25, 6 mM MgCl2, 0.1% 3-[(3-cholamidopropyl)dimethylammonio]-1-propanesulfonate (CHAPS), 250 mM sucrose, and 0.25 mM EDTA}.
(§2) The catalytic activities of the recombinant SHIP2 and SHIP1 phosphatase domains were determined by malachite green phosphate assay at the High Throughput Biomedicine Unit (University of Helsinki) using D-myo-PI(3,4,5)P3 (Echelon Biosciences, Salt Lake City, UT, USA). Different volumes, resulting in desired final concentrations of inhibitors, were transferred to the wells of 384-well plates by using the Echo550 acoustic dispenser (Labcyte, San Jose, CA, USA). Recombinant protein (100 ng) in reaction buffer {10 mM HEPES, pH 7.25, 6 mM MgCl2, 0.1% CHAPS, 250 mM sucrose, and 0.25 mM EDTA} was placed in each well (7.5 µl), and the plates were preincubated at room temperature for 15 min. The phosphatase reaction was started by adding PI(3,4,5)P3 diluted in the reaction buffer (7.5 µl) to each well to reach a final concentration of 100 µM PI(3,4,5)P3 in the 15 µl reaction volume. The plates were incubated at room temperature for 20 min, after which, 15 µl BIOMOL green reagent (Biomol, Plymouth Meeting, PA, USA) was added to each well, and then the plates were incubated for another 25 min at room temperature. Absorbance was measured at 620 nm using a Pherastar FS plate reader (BMG Labtech, Offenburg, Germany). For the manual malachite green phosphate assay in 96-well plates [see Fig. 1; and activity measurement of phosphatase and tensin homolog (PTEN; Signalchem, Richmond, BC, Canada)], the reaction volume was increased to 50 µl, and 100 µl Biomol Green Reagent was added. The catalytic activity of SHIP2 immunoprecipitated from cell and tissue lysates was determined as in Saurus et al. ([22]), omitting SHIP2 inhibitors in lysis buffer, immunoprecipitation reaction, wash, and assay buffers. AS1949490 was synthesized, as described in Supplemental Fig. S1A, or purchased from Tocris Bioscience (Bristol, United Kingdom).
Hydrogen bond is shown in green. Hydrophobic residues are shown in gray, positive-charged residues in blue, and negative-charged residues in red. […] The catalytic activity of SHIP2 was measured by manual malachite green phosphate assay.

[2] = biological target: T1, His-tagged human SHIP2 phosphatase domain (Homo sapiens, UniProt O15357); experiment: Malachite green phosphate assay, recombinant SHIP2 phosphatase domain (High Throughput Biomedicine Unit, 384-well); format: biochemical
T1 construct: we produced a His-tagged human SHIP2 phosphatase domain; His; made in house
T1 sequence (O15357 419-732 limits assumed): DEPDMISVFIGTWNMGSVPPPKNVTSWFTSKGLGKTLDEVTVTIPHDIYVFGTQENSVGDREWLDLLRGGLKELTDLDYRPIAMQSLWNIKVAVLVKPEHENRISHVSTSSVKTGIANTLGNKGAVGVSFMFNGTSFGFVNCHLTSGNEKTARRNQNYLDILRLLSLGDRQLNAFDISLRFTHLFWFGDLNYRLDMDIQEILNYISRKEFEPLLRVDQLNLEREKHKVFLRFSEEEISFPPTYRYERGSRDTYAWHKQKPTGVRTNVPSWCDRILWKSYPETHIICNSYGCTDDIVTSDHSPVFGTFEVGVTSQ
Procedure: as §1, §2

[3] = biological target: T2, His-tagged human SHIP1 phosphatase domain (Homo sapiens, UniProt Q92835); experiment: Malachite green phosphate assay, recombinant SHIP1 phosphatase domain (High Throughput Biomedicine Unit); format: biochemical; details: for IC50: purified His-tagged phosphatase domain
T2 construct: Recombinant His-tagged human SHIP2 and SHIP1 phosphatase domains were produced as previously described; His; made in house
T2 sequence (Q92835 399-715 limits assumed): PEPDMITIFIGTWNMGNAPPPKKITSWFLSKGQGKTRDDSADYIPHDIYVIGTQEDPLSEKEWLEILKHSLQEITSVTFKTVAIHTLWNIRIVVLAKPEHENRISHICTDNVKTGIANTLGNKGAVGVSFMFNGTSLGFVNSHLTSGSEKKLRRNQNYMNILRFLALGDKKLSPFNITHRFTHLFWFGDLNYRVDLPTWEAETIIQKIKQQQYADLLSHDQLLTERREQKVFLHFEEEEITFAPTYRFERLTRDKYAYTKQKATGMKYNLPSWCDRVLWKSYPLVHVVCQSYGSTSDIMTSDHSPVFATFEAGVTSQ
Procedure: as §1, §2

[4] = inhibitors at 100 µM concentration, 100 µM

Row | Structure (SMILES) | reduction of SHIP2 activity in myotubes ([1]; 20 µM) [%] | SHIP2 Inhibition efficiency [2, 4] | SHIP1 Inhibition efficiency [3, 4] | IC50 [3] [µM] | reduction of SHIP2 activity in myotubes ([1]; 1 mM) [%] | SHIP2 overexpression-induced SHIP2 activity in myotubes ([1]; L6 myotubes overexpressing SHIP2, 1 mM) | inhibition at 100 µM ([2]; inhibitors at 100 µM concentration, read-out: SHIP2 Inhibition efficiency) [%] | IC50 ([2]; purified His-tagged phosphatase domain, 100 µM PI(3,4,5)P3) [µM] | inhibition of SHIP1 (in words) [3] | inhibition at 100 µM ([3]; inhibitors at 100 µM concentration, read-out: SHIP1 Inhibition efficiency) [%]
1 | C[C@H](NC(=O)c1sccc1OCc1ccc(Cl)cc1)c1ccccc1 [AS1949490] | ~30 | 26% and 25.9% | 12% and 11.8% | > 50 | – | – | – | – | – | –
2 | CN(C)C(=N)N=C(N)N [Metformin, 1,1-Dimethylbiguanide hydrochloride] | ~30 | – | – | > 50 | 24 | to the level in the control | 39.4 | 6 | does not inhibit | 11.1
